Like-named read-outs stand apart in the source and are kept apart here.
Legend:
[1] = mouse, 10 mg/kg, oral vs IV dose-normalized plasma AUC
[2] = system: Capan-1 human pancreatic cancer tumors; details: for T − C: time to reach 1 g
in vivo = details: male, Balb, Nu/Nu, mouse, plasma, 10 mg/kg; for Vd / clearance: iv; for AUC / Cmax / half-life: po
[3] = system: BRCA mutations and breast, ovarian and prostate cancer; details: 19 patients with BRCA mutations and breast, monotherapy; cited from earlier work
[4] = cpd. 1 100 mg/kg oral daily, days 1 to 14
[5] = temozolomide 50 mg/kg oral, days 3, 4, 5, 6, 7 and 8

Structure (SMILES) | F on AUC [1] [%] | Vd (in vivo) [L/kg] | clearance (in vivo) [mL/min/kg] | AUC (in vivo) [µM·h] | Cmax (in vivo) [nM] | half-life (in vivo) [h] | BWL (%) [2, 4] [%] | TGI (%) [2, 4] [%] | Toxicity [2, 4] | T − C [2, 4] [days] | objective response rate [3] [%] | BWL (%) [2, 5] [%] | TGI (%) [2, 5] [%] | Toxicity [2, 5] | T − C [2, 5] [days]
Cl.NCCOc1c(-c2ccc(Br)cc2)[nH]c(=O)c2cc(F)ccc12 [Compound 1, 4-(2-Amino-ethoxy)-3-(4-bromo-phenyl)-7-fluoro-2H-isoquinolin-1-one hydrochloride] | 107 | 3.6 | 12 | 27 | 6000 | 3.9 | 3 | 21 | 0/7 | 4 | – | – | – | – | –
Cl.NCCOc1c(-c2ccc(N3CCOCC3)c(Br)c2)[nH]c(=O)c2cc(F)ccc12 [Compound 4, 4-(2-Amino-ethoxy)-3-(3-bromo-4-morpholin-4-yl-phenyl)-7-fluoro-2H-isoquinolin-1-one hydrochloride] | 83 | 7.8 | 44.5 | 5.6 | 3000 | 1.43 | – | – | – | – | – | – | – | – | –
Cl.NCCOc1c(-c2ccc(Cl)cc2)[nH]c(=O)c2cc(F)ccc12 [Compound 8, 4-(2-Amino-ethoxy)-3-(4-chloro-phenyl)-7-fluoro-2H-isoquinolin-1-one hydrochloride] | 74 | 5.2 | 28.2 | 7.5 | 2850 | 3 | – | – | – | – | – | – | – | – | –
COc1ccc(-c2[nH]c(=O)c3cc(F)ccc3c2OCCN)cc1F.Cl [Compound 21, 4-(2-Amino-ethoxy)-7-fluoro-3-(3-fluoro-4-methoxy-phenyl)-2H-isoquinolin-1-one hydrochloride] | 133 | 6.5 | 45.4 | 10.5 | 4600 | 3.9 | – | – | – | – | – | – | – | – | –
O=C(c1cc(Cc2n[nH]c(=O)c3ccccc23)ccc1F)N1CCN(C(=O)C2CC2)CC1 [Olaparib] | – | – | – | – | – | – | – | – | – | – | 47 | – | – | – | –
Cn1nnc2c(C(N)=O)ncn2c1=O [temozolomide, reference compound] | – | – | – | – | – | – | – | – | – | – | – | 2.5 | 13 | 0/7 | 1

Further lines, with some results ahead:

F on AUC [1] [%] | Vd (in vivo) [L/kg] | clearance (in vivo) [mL/min/kg] | AUC (in vivo) [µM·h] | Cmax (in vivo) [nM] | half-life (in vivo) [h] | Structure (SMILES) | BWL (%) [2, 4] [%] | TGI (%) [2, 4] [%] | Toxicity [2, 4] | T − C [2, 4] [days] | objective response rate [3] [%] | BWL (%) [2, 5] [%] | TGI (%) [2, 5] [%] | Toxicity [2, 5] | T − C [2, 5] [days]
109 | 4.5 | 46.3 | 8.15 | 3150 | 1.77 | Cl.NCCOc1c(-c2ccc(Br)cc2)[nH]c(=O)c2c(F)c(F)ccc12 [Compound 12, 4-(2-Amino-ethoxy)-3-(4-bromo-phenyl)-7,8-difluoro-2H-isoquinolin-1-one hydrochloride] | – | – | – | – | – | – | – | – | –
128 | 5.7 | 45 | 10 | 2000 | 3 | Cc1cc(-c2[nH]c(=O)c3cc(F)ccc3c2OCCN)ccc1Cl.Cl [Compound 13, 4-(2-Amino-ethoxy)-3-(4-chloro-3-methyl-phenyl)-7-fluoro-2H-isoquinolin-1-one hydrochloride] | – | – | – | – | – | – | – | – | –
136 | 4.2 | 20.5 | 20.3 | 2800 | 3.5 | NCCOc1c(-c2ccc(Cl)c(Cl)c2)[nH]c(=O)c2cc(F)ccc12 [Compound 14, 4-(2-Amino-ethoxy)-3-(3,4-dichloro-phenyl)-7-fluoro-2H-isoquinolin-1-one] | – | – | – | – | – | – | – | – | –
